Measured values taken from US11969408B2, “Method for improving mitophagy in subjects” (Amazentis SA, priority 2017, dated 2024).

Assay: Steady state plasma levels of total Urolithin A over 4-week dosing
Assay type: in vivo, human
Conditions: Day 31 and Day 32
Description: A double-blind, randomized, placebo controlled clinical trial was conducted in healthy elderly to establish the steady state levels of Urolithin A in plasma. Elderly subjects (61-82 years) (n=9), participated in each group of dosing. The subjects met all the inclusion and exclusion criteria of the study and signed informed consent. The subjects were overnight fasted and the plasma was collected in the morning before breakfast to assess steady state levels. Subjects were given a dose of Urolithin or placebo each morning for the 28 day trial. The urolithin A was given as softgel capsules containing 250 mg of Urolithin A in each capsule. Plasma samples were collected for assessment of Urolithin A steady state concentrations in the 4-week Urolithin A study at the following time points (Day 0, Day 7, Day 14, Day 28, Day 29, Day 31, and Day 32). […] On day 28 the subjects were admitted to a Phase 1 clinical trial unit and the kinetics of Urolithin A absorption, and elimination following multiple 4-week dosing were followed until 96 hours following the last dosing on Day 28. Plasma was collected at the following time-points post last dosing with Urolithin A on Day 28: pre-dose, 1 hr, 2 hr, 4 hr, 6 hr, 8 hr, 12 hr, 24 hr, 72 hr and 96 hr. […] The exact time of sample collection was recorded on the eCRF (electronic case report from). […]

- steady state levels after the end of the 4-week UA administration: gradually declined
Compound: O=c1oc2cc(O)ccc2c2ccc(O)cc12 [Urolithin A]
